Laboratory results reported in ChEMBL document CHEMBL1201862, “PubChem BioAssay data set” (2004).
Structures can show the parent of a compound that is named as a salt.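 Exposure lasted 48 hours, with cells grown in 96-well plates and compounds tested at five concentrations. Abbreviation: GI50, concentration required for 50% inhibition of growth.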 The source made the active and inactive calls. No stated cut-off is given here; in the data, active = GI50 up to about 1.1 µM and inactive = higher.

Tests used:
Assay in all cases: NCI tumour cell line growth inhibition, 48 h
786-0 = test system: 786-0
A498 = test system: A498
ACHN = test system: ACHN
BT-549 = test system: BT-549
COLO 205 = test system: COLO 205
HCT-15 = test system: HCT-15
HOP-92 = test system: HOP-92
K562 = test system: K562
MDA-MB-435 = test system: MDA-MB-435
MDA-N = test system: MDA-N
Malme-3M = test system: Malme-3M
OVCAR-3 = test system: OVCAR-3
PC-3 = test system: PC-3
RPMI-8226 = test system: RPMI-8226
SF-539 = test system: SF-539
SK-MEL-28 = test system: SK-MEL-28
SK-MEL-5 = test system: SK-MEL-5
T47D = test system: T47D
TK-10 = test system: TK-10
UO-31 = test system: UO-31

Row | Compound | GI50 (786-0) | GI50 (A498) | GI50 (ACHN) | GI50 (BT-549) | GI50 (COLO 205) | GI50 (HCT-15) [µM] | GI50 (HOP-92) | GI50 (K562) | GI50 (MDA-MB-435) | GI50 (MDA-N) | GI50 (Malme-3M) | GI50 (OVCAR-3) | GI50 (PC-3) | GI50 (RPMI-8226) | GI50 (SF-539) | GI50 (SK-MEL-28) | GI50 (SK-MEL-5) | GI50 (T47D) | GI50 (TK-10) | GI50 (UO-31)
1 | CCCCCCCCCCCCC(O)C1CCC(C(O)CCCCCCC(O)CCCCCCCC2=CC(C)OC2=O)O1 (stereo not given) | 32.9 µM (inactive) | 32.8 µM (inactive) | 2.48 µM (inactive) | 8.87 µM (inactive) | 19.7 µM (inactive) | 31.3 | 25.8 µM (inactive) | 6.55 µM (inactive) | 2.67 µM (inactive) | 17.7 µM (inactive) | 25.9 µM (inactive) | 20.8 µM (inactive) | 31 µM (inactive) | 7.91 µM (inactive) | > 10 µM (inactive) | 51.9 µM (inactive) | 1.19 µM (inactive) | 2.8 µM (inactive) | 35.4 µM (inactive) | 3.08 µM (inactive)
2 | C[n+]1c(-c2ccc(/C=C/C=N\NC(=O)c3ccc(C(=O)N/N=C\C=C\c4ccc(-c5cn6ccccc6[n+]5C)cc4)cc3)cc2)cn2ccccc21 | 30.3 µM (inactive) | > 100 µM (inactive) | > 100 µM (inactive) | 38.2 µM (inactive) | > 100 µM (inactive) | > 100 | > 100 µM (inactive) | 27.5 µM (inactive) | > 100 µM (inactive) | > 100 µM (inactive) | > 100 µM (inactive) | > 64 µM (inactive) | > 100 µM (inactive) | 38.1 µM (inactive) | > 100 µM (inactive) | > 100 µM (inactive) | > 84.5 µM (inactive) | > 48.1 µM (inactive) | > 86.3 µM (inactive) | > 100 µM (inactive)
3 | N=C(N)c1ccc(-c2ccc(-c3ccc(C(=N)N)cc3)o2)cc1 [FURAMIDINE HYDROCHLORIDE] | 23.2 µM (inactive) | 63.7 µM (inactive) | 39.6 µM (inactive) | 37.5 µM (inactive) | 12.4 µM (inactive) | 40.9 | 62.4 µM (inactive) | 22.8 µM (inactive) | 30.7 µM (inactive) | 27.5 µM (inactive) | 18.6 µM (inactive) | > 100 µM (inactive) | 39.5 µM (inactive) | 18.6 µM (inactive) | 37.3 µM (inactive) | 20.6 µM (inactive) | 11.9 µM (inactive) | 23.4 µM (inactive) | 24.9 µM (inactive) | 15.8 µM (inactive)
4 | Cc1cc2nc3ccc(N(C)C)cc3[s+]c2cc1N [TOLONIUM CHLORIDE] | 5.22 µM (inactive) | 21.3 µM (inactive) | 8.71 µM (inactive) | 11.7 µM (inactive) | 2.97 µM (inactive) | 2.99 | 13.4 µM (inactive) | 2.22 µM (inactive) | 0.977 µM (active) | 1.09 µM (active) | 1.93 µM (inactive) | 0.995 µM (active) | 1.58 µM (inactive) | 1.48 µM (inactive) | 2.63 µM (inactive) | 13.6 µM (inactive) | 0.641 µM (active) | 5.2 µM (inactive) | 19.2 µM (inactive) | 11 µM (inactive)
